Results reported in article PMC7432809, “Antimicrobial Activity of Small Synthetic Peptides Based on the Marine Peptide Turgencin A: Prediction of Antimicrobial Peptide Sequences in a Natural Peptide and Strategy for Optimization of Potency” (International Journal of Molecular Sciences, 2020).
Values after ≈ are worked out from the molar mass of the structure shown. Where no end group is shown, it is not given here.

Key:
Assay in all cases: microbe, parasite or virus in culture
Assay type in all cases: cell-based
[1] = system: Bacillus megaterium
Procedure: (§1) The synthesized peptides were screened for antibacterial activity against five strains of G+ bacteria: B. subtilis (Bs, ATCC 23857), C. glutamicum (Cg, ATCC 13032), S. aureus (Sa, ATCC 9144), Micrococcus luteus (Ml), B. megaterium (Bm) (the last two were obtained from professor Olaf B. Styrvold, UiT The Arctic University of Norway).
(§2) Two strains of G- bacteria, P. aeruginosa (Pa, ATCC 27853) and E. coli (Ec, ATCC 25922), were also used. Cultures stored at -80 °C in glycerol were transferred to Müller–Hinton plates (MH, Difco Laboratories, Detroit, MI, USA) and incubated for 24 h at 35 °C. Colonies of each strain were transferred to 5 mL liquid MH medium and left shaking (600 rpm) at room temperature overnight. An aliquot of actively growing bacteria (20 µL) was inoculated in 5 mL MH medium and left shaking for 2 h at room temperature. In order to have a sensitive bioassay, the bacterial cultures were diluted with medium to only 2.5–3 × 10^4 bacteria/mL and an aliquot of 50 µL was added to each well in 96 microwell plates (Thermo Fisher Scientific, Roskilde, Denmark) preloaded with peptide solution (50 µL). The antibacterial assays were performed as previously described. The microtiter plates were incubated for 24 h at 35 °C with optical density (595 nm) recorded every hour using an Envision 2103 multilabel reader, controlled by a Wallac Envision manager (PerkinElmer, Waltham, MA, USA). The minimum inhibitory concentration (MIC) was defined as the sample concentration showing an optical density less than 10% of the negative (growth) control, consisting of bacteria and MQ-H2O. Oxytetracycline (concentrations ranging from 20–0.02 µg/mL, Sigma-Aldrich) and indolicidin (concentration ranging from 200–0.2 µg/mL, Sigma-Aldrich) served as a positive (inhibition) control. The synthetic peptides were tested for antibacterial activity in concentrations ranging from 250 to 0.5 µg/mL in two-fold dilutions. All tests were performed in triplicates.

[2] = system: Bacillus subtilis (ATCC 23857)
Procedure: as §1, §2

[3] = system: Corynebacterium glutamicum (ATCC 13032)
Procedure: as §1, §2

[4] = system: Micrococcus luteus
Procedure: as §1, §2

[5] = system: Staphylococcus aureus (ATCC 9144)
Procedure: as §1, §2

[6] = system: Escherichia coli (ATCC 25922)
Procedure: as §2

[7] = system: Pseudomonas aeruginosa (ATCC 27853)
Procedure: as §2

[8] = system: Aureobasidium pullulans
Procedure: (§3) StAMP-1–11 were screened for antifungal activity against C. albicans (Ca, ATCC 10231), A. pullulans (Ap) and Rhodotorula sp. (Rh) (the last two were obtained from professor Arne Tronsmo, The Norwegian University of Life Sciences, Ås, Norway). The antifungal assay was performed as previously described with a few modifications. Briefly, fungal spores were dissolved in potato dextrose broth (Difco Laboratories) with 2% D(+)-glucose (Merck, Darmstadt, Germany) to a concentration of 4 × 10^5 spores/mL. The spores (50 µL) were inoculated on 96 microwell plates (Thermo Fisher Scientific) containing the synthetic peptides (50 µL) and controls (water or antibiotic). The peptides were diluted in MQ-H2O at final concentrations ranging from 250–3.9 µg/mL in two-fold serial dilutions. Triclosan (Sigma-Aldrich, Steinheim, Germany) was used as a positive (antifungal) control (32–0.25 µg/mL), and MQ-H2O as a negative (growth) control. Cultures were grown in room temperature for 24 h (Ca) and 48 h (Ap and Rh). Growth inhibition was determined by measuring OD values at 600 nm by a microplate reader (Synergy H1 Hybrid Multi-Mode Reader, BioTek, Winooski, VT, USA). […] All experiments were done in triplicate.

[9] = system: Candida albicans (ATCC 10231)
Procedure: as §3

[10] = system: Rhodotorula sp.
Procedure: as §3

[11] = potato dextrose broth with 2% glucose, room temperature 48 h, OD 600 nm, >90% inhibition, triplicate

| Antimicrobial Activity (MIC) Bm ([1]; Bacillus, 24 h) [µg/mL] | Antimicrobial Activity (MIC) Bs ([2]; ATCC 23857, 24 h) [µg/mL] | Antimicrobial Activity (MIC) Cg ([3]; ATCC 13032, 24 h) [µg/mL] | Antimicrobial Activity (MIC) Ml ([4]; 24 h) [µg/mL] | Antimicrobial Activity (MIC) Sa ([5]; ATCC 9144, 24 h) [µg/mL] | Antimicrobial Activity (MIC) Ec ([6]; ATCC 25922, 24 h) [µg/mL] | Antimicrobial Activity (MIC) Pa ([7]; ATCC 27853, 24 h) [µg/mL] | Antimicrobial Activity (MIC) Ap ([8]; 48 h) [µg/mL] | Antimicrobial Activity (MIC) Ca ([9]; ATCC 10231, 24 h) [µg/mL] | Antimicrobial Activity (MIC) Rh ([10]; 48 h) [µg/mL] | Compound | further results |
| --- | --- | --- | --- | --- | --- | --- | --- | --- | --- | --- | --- |
| 3.9 | 125 | 31.3 | 250 | >250 | >250 | >250 | 62.5 | 125 | 62.5 | GKKWGGWKAK-NH2 [StAMP-2] |  |
| 1.0 | 3.9 | 3.9 | 62.5 | 250 | 62.5 | >250 | 62.5 | 62.5 | 31.3 | GKKWGWWKAK-NH2 [StAMP-6] |  |
| 1.0 | 15.6 | 2.0 | 15.6 | >250 | 31.3 | 250 | 31.3 | 31.3 | 15.6 | GKKWWGWKAK-NH2 [StAMP-5] |  |
|  |  |  |  |  |  |  |  |  |  | CN(C)[C@@H]1C(O)=C(C(N)=O)C(=O)[C@@]2(O)C(O)=C3C(=O)c4c(O)cccc4[C@@](C)(O)[C@H]3[C@H](O)[C@@H]12 [Oxytetracycline, reference compound] | MIC ([1]; Priestia megaterium, Bacillus megaterium, MH medium, 24 h at 35 °C, OD 595 nm <10% of growth control, triplicates, read-out: Antimicrobial Activity (MIC) Bm): 0.6 µg/mL (≈ 1.3 µM); MIC ([2]; ATCC23857, Bacillus subtilis, MH medium, 24 h at 35 °C, OD 595 nm <10% of growth control, triplicates, read-out: Antimicrobial Activity (MIC) Bs): 10 µg/mL (≈ 21.7 µM); MIC ([3]; ATCC13032, Corynebacterium glutamicum, MH medium, 24 h at 35 °C, OD 595 nm <10% of growth control, triplicates, read-out: Antimicrobial Activity (MIC) Cg): 0.2 µg/mL (≈ 0.434 µM); MIC ([4]; Micrococcus luteus, MH medium, 24 h at 35 °C, OD 595 nm <10% of growth control, triplicates, read-out: Antimicrobial Activity (MIC) Ml): 1.3 µg/mL (≈ 2.82 µM); MIC ([5]; ATCC9144, Staphylococcus aureus, MH medium, 24 h at 35 °C, OD 595 nm <10% of growth control, triplicates, read-out: Antimicrobial Activity (MIC) Sa): 0.04 µg/mL (≈ 0.0869 µM); MIC ([6]; ATCC25922, Escherichia coli, MH medium, 24 h at 35 °C, OD 595 nm <10% of growth control, triplicates, read-out: Antimicrobial Activity (MIC) Ec): 1.3 µg/mL (≈ 2.82 µM); MIC ([7]; ATCC27853, Pseudomonas aeruginosa, MH medium, 24 h at 35 °C, OD 595 nm <10% of growth control, triplicates, read-out: Antimicrobial Activity (MIC) Pa): 2.5 µg/mL (≈ 5.43 µM) |
|  |  |  |  |  |  |  |  |  |  | Oc1cc(Cl)ccc1Oc1ccc(Cl)cc1Cl [Triclosan, reference compound] | MIC ([8]; Aureobasidium pullulans, 48 h, read-out: Antimicrobial Activity (MIC) Ap): 3.1 µg/mL; MIC ([9]; Candida albicans, ATCC10231, 24 h, read-out: Antimicrobial Activity (MIC) Ca): 3.1 µg/mL; MIC ([10]; Rhodotorula, 48 h, read-out: Antimicrobial Activity (MIC) Rh): 1.6 µg/mL |
| 3.9 | 125 | 3.9 | 125 | >250 | >250 | >250 | 62.5 | 62.5 | 31.3 | GKKPGWWKAK-NH2 [StAMP-4] |  |
| 3.9 | 7.8 | 7.8 | 15.6 | 62.5 | 15.6 | 31.3 | 62.5 | 62.5 | 15.6 | GRRWWWWRAR-NH2 [StAMP-10] |  |
| 250 | >250 | 250 | >250 | >250 | >250 | >250 | >250 | >250 | >250 | GKKPGGWKAK-NH2 [StAMP-1] |  |
|  |  |  |  |  |  |  |  |  |  | CC[C@H](C)[C@H](N)C(=O)N[C@@H](CC(C)C)C(=O)N1CCC[C@H]1C(=O)N[C@@H](Cc1c[nH]c2ccccc12)C(=O)N[C@@H](CCCCN)C(=O)N[C@@H](Cc1c[nH]c2ccccc12)C(=O)N1CCC[C@H]1C(=O)N[C@@H](Cc1c[nH]c2ccccc12)C(=O)N[C@@H](Cc1c[nH]c2ccccc12)C(=O)N1CCC[C@H]1C(=O)N[C@@H](Cc1c[nH]c2ccccc12)C(=O)N[C@@H](CCCNC(=N)N)C(=O)N[C@@H](CCCNC(=N)N)C(N)=O [Indolicidin, reference compound] | Antimicrobial Activity (MIC) Bm ([1]; Bacillus megaterium, MH medium, 24 h at 35 °C, OD 595 nm <10% of growth control, triplicates): 3.1 µg/mL; Antimicrobial Activity (MIC) Bs ([2]; Bacillus subtilis, MH medium, 24 h at 35 °C, OD 595 nm <10% of growth control, triplicates): 6.3 µg/mL; Antimicrobial Activity (MIC) Cg ([3]; Corynebacterium glutamicum, MH medium, 24 h at 35 °C, OD 595 nm <10% of growth control, triplicates): 1.6 µg/mL; Antimicrobial Activity (MIC) Ml ([4]; Micrococcus luteus, MH medium, 24 h at 35 °C, OD 595 nm <10% of growth control, triplicates): 12.5 µg/mL; Antimicrobial Activity (MIC) Sa ([5]; Staphylococcus aureus, MH medium, 24 h at 35 °C, OD 595 nm <10% of growth control, triplicates): 12.5 µg/mL; Antimicrobial Activity (MIC) Ec ([6]; Escherichia coli, MH medium, 24 h at 35 °C, OD 595 nm <10% of growth control, triplicates): 25.0 µg/mL; Antimicrobial Activity (MIC) Pa ([7]; Pseudomonas aeruginosa, MH medium, 24 h at 35 °C, OD 595 nm <10% of growth control, triplicates): >250 µg/mL; Antimicrobial Activity (MIC) Ap [8, 11]: 25.0 µg/mL; Antimicrobial Activity (MIC) Ca ([9]; potato dextrose broth with 2% glucose, room temperature 24 h, OD 600 nm, >90% inhibition, triplicate): 100 µg/mL; Antimicrobial Activity (MIC) Rh [10, 11]: 25.0 µg/mL |
| 3.9 | >250 | 15.6 | 250 | >250 | >250 | >250 | 62.5 | 125 | 62.5 | GKKPWGWKAK-NH2 [StAMP-3] |  |
| 7.8 | >250 | 31.3 | 62.5 | >250 | >250 | >250 | 250 | 125 | 31.3 | GRRPLLLRAR-NH2 [StAMP-11] |  |
